The assay addresses juvenile hormone esterase (Trichoplusia ni). The assay can be described thus: In vitro inhibition of Trichoplusia Juvenile Hormone Esterase.

In general, IC50 refers to the point on the concentration scale where inhibition reaches its midpoint.

With `CCCCCCC=CC(=O)C(F)(F)F`, the midpoint of inhibition, the IC50, lay at 79.4 µM. The same measure for `CCCCCCOCC(C)=O`: 490 µM. `CCCCCCCCC(=O)C(F)(F)F`: inhibition was half-maximal at 6.76 µM (IC50). This IC50 is about 72-fold lower than that of the compound before.

For `CCCCCCOCC(=O)C(F)(F)F`, half-maximal inhibition (IC50) required 0.0832 µM.

As for `CCCCCCCCC(=O)C(F)F`, the IC50 was 10 µM. The same measure for `CCCCCCC#CC(=O)C(F)(F)F`: 0.398 µM; for `CCCCCC[Se](=O)CC(=O)C(F)(F)F` (configuration not stated): 0.000537 µM.

(Values after BindingDB's records for doi:10.1021/jm020072w (University of California, 2002).)
